Laboratory results as given in paper PMC2360332 (British Journal of Cancer, 2007).
Where two headings read alike, the source gives them in different places.

Key:
[1] = system: phosphorylation of ER at serine 118; details: cited from earlier work
Source text: Mechanistically, AFPep is quite different from Tam. […] In fact, in this study and ...

[2] = system: T47D human breast cancer cells; assay: Growth of T47D human breast cancer cells in culture (7 days, viable cell count); format: cell-based; details: for Inhibition of basal (no E2) growth of T47D cells (in words): 10^−8 to 10^−5 M, data not shown; for Inhibition of E2-stimulated growth of T47D cells, single agent (in words): E2 10^−9 M added 1 h after agent, daily for 7 days, agent used alone, concentration–response in Figure 1A
Experimental: The MCF-7 cells were maintained in monolayer culture in Dulbecco's modification of Eagle's medium (DMEM) supplemented with 5% fetal bovine serum, glutamine (2 mM), nonessential amino acids (1%), and bovine insulin (1 μg ml^−1). The T47D human breast cancer cells were maintained in monolayer culture in RPMI-1640 medium supplemented with 10% fetal bovine serum, 100 IU ml^−1 penicillin, 100 μg ml^−1 streptomycin, 0.25 μg ml^−1 amphotericin B, and 8 μg ml^−1 bovine insulin in T-75 flasks with 2–3 medium changes per week. Cells were maintained at 37°C in an atmosphere of 5% CO2, 95% air. To evaluate the oestrogen-stimulated growth of these cells, they were released from monolayer using 0.25% trypsin/0.53 mM EDTA and suspended in oestrogen-free medium comprised of DMEM (high glucose, phenol red-free), supplemented with 10% charcoal-stripped bovine calf serum, 2 mM glutamine, 100 IU ml^−1 penicillin, and 100 μg ml^−1 streptomycin. One millilitre containing 1.2 × 10^5 cells was seeded into each well of a 24-well plate coated with collagen IV (BD Biosciences, Bedford, MA, USA). […] Control wells received the vehicle. Medium was changed every other day before treatment. One day after the last treatment, cells were trypsinised and resuspended in oestrogen-free medium, and counted using a haemacytometer following dilution with trypan blue. Viable cell number is reported.
T47D (1 × 10^5) cells were seeded into wells of collagen-coated plates in oestrogen-free medium. Medium was changed daily. Twenty-four hours after seeding, AFPep and/or Tam were added. One hour later E2 (10^−9 M) was added. Cells were treated daily for 7 days after which cells were harvested and counted in a hemacytometer. Mean viable cell number of six replicate wells ±s.e. was determined. (A) Concentration–response curve of each agent alone. Inhibition (%) of E2-stimulated growth is reported. (▪) Tam; (▴) AFPep. […] Mean viable cell number is reported.

[3] = system: MCF-7 human breast cancer xenografts; assay: MCF-7 human breast cancer xenograft under kidney capsule of SCID mice; format: in vivo, human (cells), SCID mice (host); details: E2 supplementation, five mice per group
Source text: Ten million MCF-7 human breast cancer cells were harvested from culture, centrifuged into a pellet, solidified into a fibrin clot, and implanted under the kidney capsule of SCID mice as described previously ([Bennett et al, 1985], [2002], [2006]; [Mesfin et al, 2001]; [Parikh et al, 2005]). Oestrogen supplementation was accomplished by s.c. implantation of a 5 mm silastic tubing capsule containing solid E2 inserted on the day of tumour implantation. […] The tumour-bearing kidney was exposed during survival laparotomy at 14 and 28 days after implantation and tumour size was measured using a dissecting microscope equipped with an ocular micrometer, noting the long (D) and short (d) diameters of the tumour. Five replicate mice were included in each treatment group. Mean tumour volume (0.52d^2D) was calculated for each group, and used for display of growth curves. Significance of differences between groups was tested using the one-sided Wilcoxon rank sum test.
Pieces of MCF-7 tumour were implanted under the kidney capsule of SCID mice. Oestradiol was provided via an E2-containing silastic tubing subcutaneous implant.

oestrogen receptor (ER) = assay: Inhibition of binding of [^3H]E2 to oestrogen receptor (rabbit uterine cytosol); details: rabbit uterine cytosol 2.5 mg protein ml^−1, 20 μl of 10 nM 6,7-[^3H]E2, overnight at 4°C, pH 7.4, dextran-coated charcoal; triplicate
Experimental: Rabbit uteri (Pel-Freez Biological, Rogers, AR, USA) were used as a source of ER. Uteri were pulverised in a stainless-steel impact mortar under liquid nitrogen and homogenised (20% w/v) in buffer (10 mM Tris, pH 7.4, 1.5 mM EDTA, 10% glycerol, 10 mM monothioglycerol, and 10 mM sodium molybdate) on ice. Centrifugation (50 000 g) for 1 h yielded cytosol, which was adjusted with buffer to 2.5 mg protein ml^−1. All incubations were carried out in triplicate, each containing 100 μl of cytosol, 20 μl of 10 nM 6,7-[^3H]oestradiol (6,7-[^3H]E2), and 80 μl of antagonist. After incubation overnight at 4°C, tubes received 300 μl of dextran-coated charcoal suspension; tubes were agitated for 15 min, and then centrifuged (1000 g) for 15 min.
Rabbit uterine cytosol was used as a source of ER. Test agents (80 μl) at the final concentrations indicated were incubated in triplicate with 100 μl of cytosol, and 20 μl of 10 nM 6,7-[^3H]E2 (50 Ci mmol^−1). The concentration of the [^3H]E2 complex with receptor in the presence of the test agent is expressed as a percentage of the amount of complex formed in the absence of test agent.

immature mouse uterus = assay: Immature mouse uterine growth assay; format: in vivo, Swiss mice; details: uteri harvested 22 h later, five mice per group; for Growth of immature mouse uterus (in words): single agent i.p., Tam 1 μg or AFPep 10 μg
Source text: Control mice received the vehicle. Twenty-two hours later, uteri were harvested, trimmed free of connective tissue, and weighed. Uterine weights were normalised to donor mouse body weight. There were five replicate mice per group.
Twenty-two hours after treatment, uteri were harvested, weighed, and normalised to mouse body weight.

[4] = system: MNU-induced breast cancers in rats; assay: Prevention of MNU-induced mammary cancers in rats; details: for Inhibition of tumour formation (in words): Tam 6.25 μg animal^−1 day^−1 or higher, AFPep 270 μg animal^−1 day^−1; for Incidence (percent of rats with one or more tumours when killed, approximately 120 days after MNU): 20 days from 10 days after MNU 50 mg kg^−1, n=30 rats, control 78%; for Volume (sum of the volumes of tumours in each group) / Multiplicity (total number of tumours/number of rats) / Latency (mean number of tumour-free days±s.d.): 20 days; for Volume (sum of the volumes of tumours in each group): control 69.0; for Multiplicity (total number of tumours/number of rats): control 2.1; for Latency (mean number of tumour-free days±s.d.): control 80±31
Experimental: Female rats were housed three per cage in a room maintained at 22±1°C, and artificially lighted for 12 h per day. At 50 days of age, rats received a single injection of MNU (50 mg kg^−1 body weight) or vehicle in the jugular vein. N-methyl-N-nitrosourea was administered to animals in the various treatment groups according to a predetermined randomisation chart, so as to ensure uniform distribution of the carcinogen across the groups. […] A control group of animals received daily 0.2 ml s.c. injections of saline for the same time period as AFPep administration and experienced the maximal number of tumours. Starting 30 days after MNU treatment, all rats were palpated weekly for detection of mammary tumours, noting number, location, and size. Tumour burden was determined noninvasively using calipers to measure the long (D) and short (d) diameter of each tumour. Assuming that tumours were ellipsoid shaped, tumour volume was estimated as (0.52d^2D). Cage activity of all animals was monitored daily for gross signs of toxicity. At necropsy, body weight and organ weights were assessed as indicators of toxicity.
Sprague–Dawley female rats (n=30 rats group^−1) received MNU (50 mg kg^−1) at the age of 50 days. […] Animals were palpated weekly. The incidence of tumours is shown as a function of time after carcinogen treatment.

[5] = Toxicity in MNU-exposed rats (body weight, organ weights, fur texture, cage activity); format: in vivo, Sprague–Dawley rats; details: for Body weight / Uterine weight / Heart weight: 20 days; for Body weight: control 283±30; for Uterine weight: control 0.54±0.15; for Heart weight: control 1.10±0.14
Source text: [Swanson et al, 1997]). […] In the therapy model (human tumour xenografts growing in mice) and in the prevention model (MNU-induced mammary cancers in rats), the toxicity of […]

[6] = set-up: method as in earlier work; details: high doses; ref Mesfin et al, 2001; Bennett et al, 2002, 2006; Parikh et al, 2005; cited from earlier work
[7] = effective single-agent dose: AFPep 10 μg mouse^−1 day^−1 i.p. or Tam 1 μg mouse^−1 day^−1 p.o., over a 30-day period
[8] = suboptimal dose: AFPep 0.1 μg i.p., Tam 0.05 μg p.o. per mouse per day, single agents
[9] = higher dose: AFPep 270 μg/rat/day s.c. or Tam 6.25 μg/rat/day oral gavage
[10] = higher dose: AFPep 270 (marked * P<0.05 vs control) or Tam 6.25 μg/rat/day
[11] = higher dose: AFPep 270 or Tam 6.25 μg/rat/day
[12] = suboptimal dose: AFPep 100 μg/rat/day s.c., Tam 0.05 μg/rat/day oral gavage, or both (100+0.05)
[13] = suboptimal dose: AFPep 100, Tam 0.05, or both (100+0.05) μg/rat/day, AFPep and AFPep+Tam marked * P<0.05 vs control
[14] = suboptimal dose: AFPep 100, Tam 0.05, or both (100+0.05) μg/rat/day
[15] = higher dose: AFPep 270 μg/rat/day

| Compound | Inhibition of basal (no E2) growth of T47D cells (in words) [2] | Inhibition of E2-stimulated growth of T47D cells, single agent (in words) [2] | Growth of MCF-7 tumour xenografts (in words) [3, 7] | Growth of MCF-7 tumour xenografts (in words) [3, 8] | Inhibition of binding of [^3H]E2 to ER (in words) (oestrogen receptor (ER)) | Growth of immature mouse uterus (in words) (immature mouse uterus) | Inhibition of tumour formation (in words) [4] | Incidence (percent of rats with one or more tumours when killed, approximately 120 days after MNU) [4, 9] | Volume (sum of the volumes of tumours in each group) [4, 10] | Multiplicity (total number of tumours/number of rats) [4, 11] | Latency (mean number of tumour-free days±s.d.) [4, 11] | Incidence (percent of rats with one or more tumours when killed, approximately 120 days after MNU) [4, 12] | Volume (sum of the volumes of tumours in each group) [4, 13] | Multiplicity (total number of tumours/number of rats) [4, 14] | Latency (mean number of tumour-free days±s.d.) [4, 14] | Body weight [5, 11] | Uterine weight [5, 14] | Heart weight [5, 14] | Body weight [5, 14] | also measured |
| --- | --- | --- | --- | --- | --- | --- | --- | --- | --- | --- | --- | --- | --- | --- | --- | --- | --- | --- | --- | --- |
| CC/C(=C(\c1ccccc1)c1ccc(OCCN(C)C)cc1)c1ccccc1 [Tam, Tamoxifen, reference compound] | neither Tam nor AFPep inhibited the basal (no E2) growth | inhibited the E2-stimulated growth | completely prevented the growth of MCF-7 tumour xenografts | tumour growth occurred, although it was less than tumour growth in nontreated mice | concentration-dependent inhibition of E2 binding | stimulates the growth of immature mouse uterus | significant inhibition of tumour formation | 26% | 70.2 cm^3 | 0.5 tumours/rat | 85 ± 15 days | 73% | 62.4 cm^3 | 1.3 tumours/rat | 95 ± 36 days | 273 ± 28 g | 0.49 ± 0.17 g | 1.12 ± 0.13 g | 282 ± 31 g | Stimulation of phosphorylation of ER at serine 118 (in words) ([1]; following binding to receptor, ref Chen et al, 2002): stimulates phosphorylation of ER at serine 118; Effect on uterine growth (in words) ([5]; rats, low doses, whether or not AFPep was present): no effect on uterine growth |
| cyclo(EKTOVNOGN) (head to tail) [AFPep] | neither Tam nor AFPep inhibited the basal (no E2) growth | inhibited the E2-stimulated growth | completely prevented the growth of MCF-7 tumour xenografts | tumour growth occurred, although it was less than tumour growth in nontreated mice | did not inhibit the binding of [^3H]E2 to ER | does not stimulate uterine growth | significant inhibition of tumour formation | 40% | 34.5^* cm^3 | 0.5 tumours/rat | 88 ± 16 days | 63% | 39.1^* cm^3 | 1.1 tumours/rat | 97 ± 33 days | 280 ± 29 g | 0.52 ± 0.15 g | 1.12 ± 0.14 g | 285 ± 24 g | Stimulation of phosphorylation of ER at serine 118 (in words) ([1]; ref Bennett et al, 2006): did not stimulate phosphorylation of ER at serine 118; Inhibition of phosphorylation of ER following ligand binding (in words) ([1]; stated in Discussion as function of AFPep, not measured in this paper): inhibit the phosphorylation of ER that follows ligand binding to ER; Toxicity or side effects in previous work (in words) [6]: no evidence of toxicity or side effects has been detected; Tam-induced growth of immature mouse uterus (in words) (immature mouse uterus; AFPep 10 μg i.p. 1 h before Tam 1 μg i.p., Figure 4 * P<0.05 vs Tam alone, Dunnett's test): significantly inhibits the Tam-induced growth of the immature mouse uterus; Uterine weight [5, 15]: 0.62 ± 0.17 g; Heart weight [5, 15]: 1.09 ± 0.13 g; Effect on body weight, fur texture, cage activity, organ weights (in words) ([5]; rats, therapeutic doses for 2–3 weeks): no effect on body weight, fur texture, or cage activity during the lifespan of the animals, or on organ weights obtained at necropsy |
